Like-named read-outs stand apart in the source and are kept apart here.
Legend:
[1] = biological target: T1, human α2β2γ1 complex (Homo sapiens, UniProt O43741+P54619+P54646); assay: Cell-free kinase assay of bacterially expressed human α2β2γ1 complex phosphorylated on Thr172 by CaMKK2; format: biochemical; conditions: ATP 200 µM; read-out: IC50, inhibition of human α2β2γ1 complex
T1 construct: (His)6
Description: (§1) AMPK assays measured the transfer of radioactivity from labelled ATP to a peptide substrate, which was separated from unreacted ATP by binding to P81 paper. This assay was described previously, except that we used [γ-^33P]ATP rather than [γ-^32P]ATP. The peptide substrate was the AMARA peptide in all experiments other than one, which analyzed allosteric activation by AMP (Figure 2A), when, for technical reasons, the SAMS peptide was used instead. With purified preparations of AMPK, it was assayed in solution, but for assays in cell lysates (Figure 3D and Figure 4D), it was first immunoprecipitated using a mixture of anti-α1 and -α2 antibodies and assayed in resuspended immunoprecipitates. After the initial immunoprecipitation of lysate containing 80 µg of protein, the pellets were washed twice with 1 mL of high salt IP buffer (50 mM Tris-HCL, pH 7.4 at 4 °C, 1 M NaCl, 1 mM EDTA, 1 mM EGTA, 50 mM NaF, 5 mM Na pyrophosphate, 1 mM dithiothreitol, 0.1% (v/v) Triton X-100) and twice with 1 mL of low salt IP buffer (as above but only 150 mM NaCl), followed by a final wash in 1 mL of assay buffer (50 mM Na Hepes, pH7.4, 150 mM NaCl, 1 mM dithiothreitol, 0.02% (v/v) Brij-35). After each wash, the pellet was recovered via centrifugation (16,000× g, 3 min) and then resuspended. […]

[2] = test system: purified rat liver AMPK; assay: Allosteric activation of rat liver AMPK by AMP with and without BAY-3827; format: biochemical; conditions: BAY-3827 30 nM
Description: (§2) AMPK assays measured the transfer of radioactivity from labelled ATP to a peptide substrate, which was separated from unreacted ATP by binding to P81 paper. This assay was described previously, except that we used [γ-^33P]ATP rather than [γ-^32P]ATP. The peptide substrate was the AMARA peptide in all experiments other than one, which analyzed allosteric activation by AMP (Figure 2A), when, for technical reasons, the SAMS peptide was used instead. With purified preparations of AMPK, it was assayed in solution, but for assays in cell lysates (Figure 3D and Figure 4D), it was first immunoprecipitated using a mixture of anti-α1 and -α2 antibodies and assayed in resuspended immunoprecipitates. After the initial immunoprecipitation of lysate containing 80 µg of protein, the pellets were washed twice with 1 mL of high salt IP buffer (50 mM Tris-HCL, pH 7.4 at 4 °C, 1 M NaCl, 1 mM EDTA, 1 mM EGTA, 50 mM NaF, 5 mM Na pyrophosphate, 1 mM dithiothreitol, 0.1% (v/v) Triton X-100) and twice with 1 mL of low salt IP buffer (as above but only 150 mM NaCl), followed by a final wash in 1 mL of assay buffer (50 mM Na Hepes, pH7.4, 150 mM NaCl, 1 mM dithiothreitol, 0.02% (v/v) Brij-35). After each wash, the pellet was recovered via centrifugation (16,000× g, 3 min) and then resuspended. The final resuspended pellets from each biological replicate were divided into two aliquots (40 µg lysate protein) to provide technical replicates and assayed as above.

[3] = biological target: T2, “naïve” (unphosphorylated), bacterially expressed human α1β1γ1 complex (Homo sapiens, UniProt Q13131+Q9Y478); assay: Allosteric activation of naïve (unphosphorylated) α1β1γ1 complex by MK-8722 with and without BAY-3827; format: biochemical; conditions: BAY-3827 30 nM
T2 construct: (His)6
Description: as §2

[4] = test system: human AMPK (α2β1γ1 complex); conditions: low ATP concentration (10 µM); read-out: IC50, inhibition of human AMPK (α2β1γ1 complex); cited from earlier work
[5] = set-up: method as in ref 32 = [32]; 32. Lemos C. Schulze A. Overview for BAY-3827, an Inhibitor of PRKAA1, RPS6KA1 Available online: https://www.sgc-ffm.uni-frankfurt.de/chemProbes#!specificprobeoverview/BAY-3827 (accessed on 14 Novembe); conditions: rat hepatocytes; cited from earlier work
[6] = set-up: method as in ref 32 = [32]; 32. Lemos C. Schulze A. Overview for BAY-3827, an Inhibitor of PRKAA1, RPS6KA1 Available online: https://www.sgc-ffm.uni-frankfurt.de/chemProbes#!specificprobeoverview/BAY-3827 (accessed on 14 Novembe); conditions: mouse liver microsomes; cited from earlier work
[7] = test system: RSK (RSK1-4, also known as RPS6KA1-4); conditions: selectivity screen against 331 kinases, 1 µM, 10 µM ATP; cited from earlier work
[8] = biological target: T3, human α2β2γ1 complex (Homo sapiens, UniProt P54646); assay: Cell-free kinase assay of bacterially expressed human α2β2γ1 complex phosphorylated on Thr172 by CaMKK2; format: biochemical; conditions: ATP 200 µM; read-out: IC50, inhibition of human α2β2γ1 complex
T3 construct: (His)6
Description: as §1

[9] = test system: phosphorylation of Ser29 on ATG14, an established target for ULK1, in U2OS cells; assay: ATG14 phosphorylation (ULK1 target) in U2OS cells (Western blot); format: cell-based, human; conditions: read-out: IC50, inhibition of ATG14 (Ser29) phosphorylation
Method: T-Rex U2OS cells carrying a Flp Recombinase Target (FRT) site were generated as described previously and grown in Dulbecco’s Modified Eagle’s Medium (DMEM) supplemented with 10% (v/v) FBS and 1% (v/v) penicillin/streptomycin.
Cells were lysed rapidly in situ on culture plates using ice-cold lysis medium containing phosphatase inhibitors, as described previously.
SDS-PAGE was performed using precast NuPAGE Tris-acetate 3–8% gradient polyacrylamide gels in Tris-acetate running buffer when analyzing ACC, GBF1, or Raptor, or NuPAGE Bis-Tris 4–12% gradient polyacrylamide gels in the MOPS buffer system (ThermoFisher Scientific, Waltham, MA, USA) for other proteins (unless stated otherwise). Proteins were transferred to nitrocellulose membranes using the iBlot 2 system (ThermoFisher Scientific). Membranes were enhanced if necessary using SuperSignal Western Blot Enhancer (ThermoFisher Scientific), then blocked for 1 h in Li-Cor Odyssey blocking buffer. The membranes were probed with the appropriate primary antibody (0.1–1 mg/mL) overnight at 4 °C. […] Protein concentrations were determined by Coomassie Blue binding with bovine serum albumin as a standard. The cellular levels of AMP and ATP were determined via direct perchloric acid extraction from cells, with LC:MS used to estimate the levels of each nucleotide.

[10] = set-up: method as in PMID 35802287; conditions: cited from earlier work

T2 sequence (Q13131 whole entry): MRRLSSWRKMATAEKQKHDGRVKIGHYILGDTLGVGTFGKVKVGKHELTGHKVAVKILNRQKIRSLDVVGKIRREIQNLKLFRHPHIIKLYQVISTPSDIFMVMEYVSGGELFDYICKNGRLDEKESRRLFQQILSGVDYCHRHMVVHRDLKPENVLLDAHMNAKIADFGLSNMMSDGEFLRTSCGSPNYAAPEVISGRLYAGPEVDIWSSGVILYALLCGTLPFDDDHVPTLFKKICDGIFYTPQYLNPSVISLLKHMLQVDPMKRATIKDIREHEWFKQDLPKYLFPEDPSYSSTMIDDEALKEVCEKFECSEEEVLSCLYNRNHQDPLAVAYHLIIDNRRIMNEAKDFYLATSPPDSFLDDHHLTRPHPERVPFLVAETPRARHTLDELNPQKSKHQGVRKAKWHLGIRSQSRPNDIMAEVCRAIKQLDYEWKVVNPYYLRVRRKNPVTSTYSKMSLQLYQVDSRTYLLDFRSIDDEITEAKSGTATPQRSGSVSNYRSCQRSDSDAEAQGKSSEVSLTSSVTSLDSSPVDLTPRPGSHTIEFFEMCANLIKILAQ
T2 sequence (Q9Y478 2-270): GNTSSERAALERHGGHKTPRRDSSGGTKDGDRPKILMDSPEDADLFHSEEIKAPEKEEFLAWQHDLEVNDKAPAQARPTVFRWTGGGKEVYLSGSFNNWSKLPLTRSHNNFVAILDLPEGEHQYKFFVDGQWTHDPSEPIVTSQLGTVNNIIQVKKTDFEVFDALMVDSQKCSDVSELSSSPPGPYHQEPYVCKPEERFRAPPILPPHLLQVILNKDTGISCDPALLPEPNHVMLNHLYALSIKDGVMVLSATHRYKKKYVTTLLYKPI
T2 sequence (P54619 whole entry partner): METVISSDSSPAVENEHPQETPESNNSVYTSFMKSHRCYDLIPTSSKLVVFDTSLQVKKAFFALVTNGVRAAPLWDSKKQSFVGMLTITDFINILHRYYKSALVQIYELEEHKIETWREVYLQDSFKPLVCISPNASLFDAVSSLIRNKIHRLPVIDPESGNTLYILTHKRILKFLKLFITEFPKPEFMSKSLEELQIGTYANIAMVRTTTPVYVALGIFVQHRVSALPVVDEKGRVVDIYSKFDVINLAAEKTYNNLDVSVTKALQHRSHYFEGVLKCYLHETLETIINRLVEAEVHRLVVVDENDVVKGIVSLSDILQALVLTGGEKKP
T3 sequence (P54646 whole entry): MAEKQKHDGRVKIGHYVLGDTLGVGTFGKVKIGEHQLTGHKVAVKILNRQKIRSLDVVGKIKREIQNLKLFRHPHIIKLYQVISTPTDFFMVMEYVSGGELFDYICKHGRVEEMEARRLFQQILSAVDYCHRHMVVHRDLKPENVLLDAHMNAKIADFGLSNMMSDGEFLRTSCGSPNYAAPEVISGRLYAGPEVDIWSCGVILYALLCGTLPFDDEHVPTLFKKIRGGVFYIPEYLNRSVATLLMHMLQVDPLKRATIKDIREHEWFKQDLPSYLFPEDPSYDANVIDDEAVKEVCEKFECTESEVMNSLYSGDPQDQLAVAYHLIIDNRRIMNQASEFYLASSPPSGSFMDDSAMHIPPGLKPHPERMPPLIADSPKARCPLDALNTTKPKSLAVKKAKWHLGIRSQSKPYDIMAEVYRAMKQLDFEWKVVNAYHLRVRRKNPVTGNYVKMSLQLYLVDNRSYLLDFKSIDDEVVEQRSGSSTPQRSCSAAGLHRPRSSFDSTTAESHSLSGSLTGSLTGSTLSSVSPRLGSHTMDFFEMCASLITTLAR
T3 sequence (O43741 whole entry partner): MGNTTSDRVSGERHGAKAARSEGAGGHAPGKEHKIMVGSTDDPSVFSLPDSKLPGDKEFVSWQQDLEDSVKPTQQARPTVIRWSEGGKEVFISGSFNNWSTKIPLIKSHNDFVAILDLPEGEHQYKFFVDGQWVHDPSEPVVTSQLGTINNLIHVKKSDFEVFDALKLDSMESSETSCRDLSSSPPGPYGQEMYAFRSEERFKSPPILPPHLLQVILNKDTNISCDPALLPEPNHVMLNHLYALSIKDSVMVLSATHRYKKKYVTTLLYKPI
T3 sequence (P54619 whole entry partner): as the sequence (P54619 whole entry partner) above
T1 sequence (P54646 whole entry): as the sequence (P54646 whole entry) above
T1 sequence (O43741 whole entry partner): as the sequence (O43741 whole entry partner) above
T1 sequence (P54619 whole entry partner): as the sequence (P54619 whole entry partner) above

SMILES | IC50 [1] [nM] | fold increase of EC50 for AMP [2] [fold] | basal activity (without AMP) ([2]; control without inhibitor 135) [nmol/min/mg] | fold increase of EC50 for MK-8722 [3] [fold] | basal activity (without MK-8722) ([3]; control without inhibitor 11) [nmol/min/mg] | IC50 [4] [nM] | in vitro clearance (CL) [5] [mL/min/kg] | oral bio-availability (Fmax) [5] [%] | in vitro clearance (CL) [6] [mL/min/kg] | oral bio-availability (Fmax) [6] [%] | inhibition of all four isoforms of RSK [7] | IC50 [8] [nM] | IC50 [9] [nM] | elimination half-life [10] | relative oral availability [10]
CCc1ccccc1C(=O)Nc1n[nH]c2c(C)c(F)c(C3C(C#N)=C(C)N(C)C(C)=C3C#N)cc12 [BAY-3827] | 70 | 5 | 46 | 7 | 8.7 | 1.4 | 55 | 21 | 83 | 7 | potently inhibit | – | – | – | –
CNC(=O)c1ccccc1Oc1nc(Nc2cc(OC)c(OC)c(OC)c2)ncc1Br [SBI-0206965] | – | – | – | – | – | – | – | – | – | – | – | 206 | 67000 | short | low

— paper PMC10778976, “BAY-3827 and SBI-0206965: Potent AMPK Inhibitors That Paradoxically Increase Thr172 Phosphorylation” (International Journal of Molecular Sciences, 2023)
